Results taken from patent publication US11242351B2, “Tricyclic inhibitors of the BCL6 BTB domain protein-protein interaction and uses thereof” (priority 2017, dated 2022).
Where two headings read alike, the source gives them in different places.

Columns and labels:
[1] = system: BCL6 reporter construct in SuDHL4-3×BCL6-TK-Luc cells; assay: Cell-based luciferase assay (BCL6 reporter); settings: 48 h, read-out: Luc IC50
Procedure, shortened: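 SuDHL4 cells stably carrying a 3×BCL6-site TK-promoter firefly luciferase reporter, 15,000 cells/well, dosed over 10 concentrations (top 10 μM) and cultured two days at 37° C, 5% CO2. Luciferase luminescence read after room-temperature equilibration with neolite reagent.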

[2] = biological target: BCL6 BTB domain (biotin-thrombin-BCL6 amino acids 1-129) (Homo sapiens (Human), UniProt P41182); assay: Surface Plasmon Resonance (SPR) assay; assay type: binding; settings: Biacore T200, single cycle kinetic analysis
Experimental: Surface Plasmon Resonance (SPR) Assay
SPR studies were performed using a Biacore™ T200 instrument (GE Health Sciences Inc.). […] The Biacore flow rate was set at 100 μl/min. […] Curve fitting and KD calculations were performed with the Biacore T200 Evaluation software (GE Health Sciences Inc).

Karpas422 cells = assay: Tumor cell growth inhibition assay; assay type: cell-based; settings: Homo sapiens, KARPAS-422, 144 h, read-out: GI Karpas EC50
Procedure, shortened: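 Karpas422 cells were dosed over a 10-point concentration range (top 5 μM) and grown 6 days at 37 °C, 5% CO2, in Alpha-MEM with 10% FBS. Viability was read as ATPlite luminescence.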

[3] = SuDHL4-3×BCL6-TK-Luc cells, two days
[4] = Karpas422 cells, six days, ATPlite

| SMILES | IC50 [1, 3] | Kd [2] | EC50 (Karpas422 cells; [4]) | IC50 [1] | EC50 (Karpas422 cells) |
| --- | --- | --- | --- | --- | --- |
| CC1Cc2nc3c(c(-c4cc(C(N)=O)c(O)c(F)c4F)cn3CC(=O)Nc3cc(N4CCN(C)C[C@@H]4C)nc(F)c3Cl)c(=O)n2C1 (stereo partly drawn) [I-63, 5-(1-(2-((3-chloro-6-((S)-2,4-dimethyl-piperazin-1-yl)-2-fluoropyridin-4-yl)amino)-2-oxoethyl)-7-methyl-4-oxo-4,6,7,8-tetrahydro-1H-dipyrrolo[1,2-a:2′,3′-d]pyrimidin-3-yl)-3,4-difluoro-2-hydroxy-benzamide] | 110 nM | 10.2 nM | 120 nM | – | – |
| COc1c(-c2cn(CC(=O)Nc3cc(N4CCN(C)C[C@@H]4C)nc(F)c3Cl)c3nc4n(c(=O)c23)CCC4)cc(C(N)=O)c(O)c1F [I-91, (S)-5-(1-(2-((3-chloro-6-(2,4-dimethylpipera-zin-1-yl)-2-fluoro-pyridin-4-yl)amino)-2-oxoethyl)-4-oxo-4,6,7,8-tetrahydro-1H-dipyrrolo [1,2-a:2′,3′-d]pyrimidin-3-yl)-3-fluoro-2-hydroxy-4-methoxy-benzamide] | – | 94.7 nM | – | 1030 nM | 1790 nM |
| C[C@H]1CN(C)CCN1c1cc(NC(=O)Cn2cc(-c3cc(C(N)=O)c(O)c(F)c3F)c3c(=O)n4c(nc32)COCC4)c(Cl)c(F)n1 [I-33, (S)-5-(1-(2-((3-chloro-6-(2,4-dimethylpiperazin-1-yl)-2-fluoropyridin-4-yl)amino)-2-oxoethyl)-4-oxo-4,6,7,9-tetrahydro-1H-pyrrolo[2′,3′:4,5]pyrimido[2,1-c][1,4]oxazin-3-yl)-3,4-difluoro-2-hydroxybenzamide] | – | 11 nM | – | 149 nM | 214 nM |
| C[C@H]1CN(CCC(F)(F)F)CCN1c1cc(NC(=O)Cn2cc(-c3cc(C(N)=O)c(O)c(F)c3F)c3c(=O)n4c(nc32)CCC4)c(Cl)c(F)n1 [I-40, (S)-5-(1-(2-((3-chloro-2-fluoro-6-(2-methyl-4-(3,3,3-trifluoropropyl)piperazin-1-yl)pyridin-4-yl)amino)-2-oxoethyl)-4-oxo-4,6,7,8-tetrahydro-1H-dipyrrolo[1,2-a:2′,3′-d]pyrimidin-3-yl)-3,4-difluoro-2-hydroxy-benzamide] | 187 nM | 134 nM | 273 nM | – | – |
| C[C@H]1CN(C)C[C@H](C)N1c1cc(NC(=O)Cn2cc(-c3cc(C(N)=O)c(O)c(F)c3F)c3c(=O)n4c(nc32)CCC4)c(Cl)c(F)n1 [I-73, 5-(1-(2-((3-chloro-2-fluoro-6-((2S,6S)-2,4,6-trimethyl-piperazin-1-yl)pyridin-4-yl)amino)-2-oxo-ethyl)-4-oxo-4,6,7,8-tetrahydro-1H-dipyrrolo [1,2-a:2′,3′-d]pyrimidin-3-yl)-3,4-difluoro-2-hydroxybenzamide] | – | 58.6 nM | – | 1050 nM | 648 nM |
| C[C@H]1CNCCN1c1cc(NC(=O)Cn2cc(-c3cc(C(N)=O)c(O)c4c3OCO4)c3c(=O)n4c(nc32)CCC4)c(Cl)c(F)n1 [I-90, (S)-7-(1-(2-((3-chloro-2-fluoro-6-(2-methyl-piperazin-1-yl)pyridin-4-yl)amino)-2-oxo-ethyl)-4-oxo-4,6,7,8-tetrahydro-1H-dipyrrolo [1,2-a:2′,3′-d]pyrimidin-3-yl)-4-hydroxybenzo [d][1,3]dioxole-5-carboxamide] | 23.5 nM | 0.7 nM | 22 nM | – | – |
